Article PMC7551591, “The Effect of Resveratrol or Curcumin on Head and Neck Cancer Cells Sensitivity to the Cytotoxic Effects of Cisplatin” (Nutrients, 2020)

Experiments:
Assay type in all cases: cell-based, human
HUVEC normal cells = experiment: MTT drug sensitivity (viability) assay, normal cells; settings: 24 h; for IC 25 / IC50: MTT; for IC50: Homo sapiens
Experimental: The MTT assay is based on the ability of viable cells to reduce the reagent 3-(4,5-dimethylthiazol-2-yl)-2,5-diphenyltetrazolium bromide to colored formazan compounds [48]. Because the transformation is only possible in viable cells, the amount of blue formazan is proportional to the number of viable cells and thus, a linear dependence exists between cell activity and absorbance. Cells were seeded in triplicate in 96-well plates at a density of 5000 cells/well, incubated at 37 °C for 24 h. […] After the incubation period, 20 μL MTT (5 mg/mL in PBS) was added and further incubated for 4 h. The supernatant was removed, and the formazan product was analyzed spectrophotometrically (570 nm) after dissolution in DMSO. Wells without cells serve as a blank, and their absorbance was subtracted from the other results. Untreated cells were used as control and their viability was assumed as 100%. Results were expressed as mean values of three determinations ± standard deviation (SD). Data are presented as percent of cell viability and compared to untreated [Viability% = (T − B)/(U − B) × 100, {where T = absorbance of treated cells; U = absorbance of untreated cells, B = absorbance of blank}]. Once percent viability was obtained, the drug response curve was generated, and inhibitory concentration (IC50 and IC25) was calculated using GraphPad Prism version 5.01 [49].
SI values of more than 2 were considered as indicative of high selectivity.
The anticancer cytotoxic activity in vitro was evaluated by the MTT assay. […] The most widely used and informative measure of a drug’s efficacy is IC50-the half-maximal inhibitory concentration. IC50 was determined at half of the difference between the maximum (plateau) and minimum absorbance values, by plotting the absorbance value at 570 nm (Y axis) versus the concentration of the compound analysed (X axis). The IC50 values were reported as a mean of three independent experiments ± standard deviation (S.D.).

[1] = tested on: p21 protein (CIP1/CDKN1A) expression in PE/CA-PJ49; experiment: Total p21 protein ELISA in cell lysates, tumor cells; settings: 24 h; for n-fold p21 Protein Expression PE/CA-PJ49: vs control
Experimental: After incubation, cells were washed twice with ice-cold PBS, scraped, pelleted and lysed in RIPA buffer (Pierce) supplemented with protease inhibitor cocktail (Roche) and phosphatase inhibitor (Roche) for 30 min on ice. The lysates were transfered into microcentrifuge tubes and centrifuged at 14,000× g for 5 min at 4 °C followed by sonication (10–15 s × 3). The supernatants were collected into clean microcentrifuge tubes and stored at −80 °C. Lysates protein concentration were quantified by BCA protein assay kit (Thermo Scientific) and aliquots of 50 μg of total cell lysate were used for ELISA assay.
DuoSetR IC ELISA-Human Total p21/CIP1/CDKN1A(: DYC1047-2) was purchased from R&D Systems Inc. and contains the basic components required for the development of sandwich ELISAs to measure human p21 protein also known as CIP1 and CDKN1A in cell lysates. An immobilized capture antibody specifically binds human p21. After washing away unbound material, a biotinylated detection antibody specific for human p21 is used to detect the captured protein, utilizing a standard Streptavidin-HRP format. All experiments were performed in triplicates and absorbance was measured at λ = 450 nm using a Dynex plate reader.
In cancer development and evolution p21 protein might acts as an oncogene or tumor suppressor and for this reason it could be an important player in processes such as the cancer aggressiveness or the response to chemotherapy. In this study, using ELISA assay we analyzed the expression level of p21 in the tumor cells (PE-CA/PJ49) compared to a normal cells (HUVEC).

[2] = tested on: P21 (CDKN1A) gene expression in HUVEC; experiment: Real-time PCR of CDKN1A (P21) gene, normal cells; settings: 24 h, reference gene HPRT, 2^-ΔΔCt vs control
Excerpt: (§1) In order to isolate of total RNA from treated or untreated cells was used TRIzol reagent (Invitrogen)-a monophasic solution of phenol and guanidine isothiocyanate. During the isolation phases, the TRIzol reagent maintains RNA integrity, while disrupting cells and dissolving cell components. The addition of chloroform followed by centrifugation ensures the separation phase of the solution into an aqueous phase and an organic phase. RNA remains in the aqueous phase and is recovered by isopropanol precipitation. The RNA pellet washed once with 75% ice-cold ethanol and entrifuged at 10,000× g for 5 min at 4 °C. The […] is redissolved in nuclease-free water and incubating in a 60 °C water bath for 10 min. The concentration of isolated RNA was assessed using a NanoDrop spectrophotometer ([…], Montchanin, DE, USA). RNA purity was determined by A260/A280 ratios (an […] ratio as close as possible to 2 indicates the presence of highly purified RNA). Reverse transcription of messenger RNA molecules was performed using the High-capacity cDNA Reverse Transcription Kit from Applied Biosystems, using non-specific, randomic primers, following the manufacturer's instructions (Table 1). […] The obtained cDNA was stored at 4 °C and further used in the amplification reaction Real-Time PCR (RT-PCR). […] The samples were analyzed using the formula 2^-ΔΔCt.

[3] = tested on: P21 (CDKN1A) gene expression in PE/CA-PJ49; experiment: Real-time PCR of CDKN1A (P21) gene, tumor cells; settings: 24 h, reference gene HPRT, 2^-ΔΔCt vs control
Excerpt: as §1

| SMILES | IC 25 (HUVEC normal cells) | IC50 (HUVEC normal cells) | p21 pg/mL PE/CA-PJ49 ([1]; 15 μM CRM) | n-fold p21 Protein Expression PE/CA-PJ49 ([1]; 15 μM CRM) | n-fold P21 gene expression HUVEC ([2]; 15 μM CRM) | n-fold P21 gene expression PE/CA-PJ49 ([3]; 15 μM CRM) | cell viability (MTT) (HUVEC normal cells; RSV 40 μM vs untreated cells) | p21 pg/mL PE/CA-PJ49 ([1]; 40 μM RSV) | n-fold p21 Protein Expression PE/CA-PJ49 ([1]; 40 μM RSV) | n-fold P21 gene expression HUVEC ([2]; 40 μM RSV) | n-fold P21 gene expression PE/CA-PJ49 ([3]; 40 μM RSV) |
| --- | --- | --- | --- | --- | --- | --- | --- | --- | --- | --- | --- |
| COc1cc(/C=C/C(=O)CC(=O)/C=C/c2ccc(O)c(OC)c2)ccc1O [CRM, Curcumin] | 19.2 ± 2.1 µM | 59.3 ± 6.1 µM | 941 pg/mL | 1.51 | 1.39 | 1.2 | – | – | – | – | – |
| Oc1ccc(C=Cc2cc(O)cc(O)c2)cc1 [RSV, 3,5,4′-trihydroxystilbene] | 40.6 ± 3.3 µM | 110 ± 8.6 µM | – | – | – | – | significantly affected | 1550 pg/mL | 2.48 | 0.36 | 3.1 |
